In ChEMBL document CHEMBL3885881, “DrugMatrix”:

Species: Rattus norvegicus
Assay: DrugMatrix - Regimen: Daily Repeat
Format: toxicity, organism-based, Sprague-Dawley
Parameters: regimen Daily Repeat, gender Male, age 6-8 weeks
Conditions: in vivo, iv, vehicle 100 % SALINE; for ABSOLUTE BASOPHIL / ABSOLUTE EOSINOPHIL / ABSOLUTE LYMPHOCYTE / ABSOLUTE MONOCYTE / ABSOLUTE SEGMENTED NEUTROPHIL / BASOPHIL / EOSINOPHIL / ERYTHROCYTE COUNT / HEMATOCRIT / HEMOGLOBIN / LEUKOCYTE COUNT / LYMPHOCYTE / MEAN CORPUSCULAR HEMOGLOBIN / MEAN CORPUSCULAR HEMOGLOBIN CONCENTRATION / MEAN CORPUSCULAR VOLUME / MONOCYTE / NEUTROPHIL / NUCLEATED RED BLOOD CELLS / PLATELET COUNT: tissue Blood; for ALANINE AMINOTRANSFERASE / ALBUMIN / ALKALINE PHOSPHATASE / ASPARTATE AMINOTRANSFERASE / BLOOD UREA NITROGEN / CARBON DIOXIDE / CHLORIDE / CHOLESTEROL / CREATINE PHOSPHOKINASE / CREATININE / GLUCOSE / LACTATE DEHYDROGENASE / LIPASE / PHOSPHORUS / POTASSIUM / SODIUM / TOTAL BILIRUBIN / TOTAL PROTEIN / URIC ACID: tissue Plasma
[1] = 120 mg/kg, 72 h, dose level High, time 3 day
[2] = 120 mg/kg, 120 h, dose level High, time 5 day
[3] = […], 72 h, dose 8.2 mg/Kg, dose level Low, time 3 day
[4] = […], 120 h, dose 8.2 mg/Kg, dose level Low, time 5 day

[H]/N=C(/N)N[C@H]1[C@H](O)[C@@H](O)[C@H](O[C@@H]2O[C@@H](C)[C@](O)(C=O)[C@H]2O[C@@H]2O[C@@H](CO)[C@H](O)[C@@H](O)[C@@H]2NC)[C@@H](N/C(N)=N\[H])[C@@H]1O [STREPTOMYCIN]
ABSOLUTE BASOPHIL [1]: 0 CELLS/uL | ABSOLUTE EOSINOPHIL [1]: 272.33 CELLS/uL | ABSOLUTE LYMPHOCYTE [1]: 11274.33 CELLS/uL | ABSOLUTE MONOCYTE [1]: 397 CELLS/uL | ABSOLUTE SEGMENTED NEUTROPHIL [1]: 1289.67 CELLS/uL | BASOPHIL [1]: 0% | EOSINOPHIL [1]: 2% | ERYTHROCYTE COUNT [1]: 5.88 x10E6/uL | HEMATOCRIT [1]: 36.13% | HEMOGLOBIN [1]: 13.67 G/DL | LEUKOCYTE COUNT [1]: 13.23 x10E3/uL | LYMPHOCYTE [1]: 85.33% | MEAN CORPUSCULAR HEMOGLOBIN [1]: 23.3 pg | MEAN CORPUSCULAR HEMOGLOBIN CONCENTRATION [1]: 37.8 G/DL | MEAN CORPUSCULAR VOLUME [1]: 61.53 fL | MONOCYTE [1]: 3% | NEUTROPHIL [1]: 9.67% | NUCLEATED RED BLOOD CELLS [1]: 0.33 /100WBC | PLATELET COUNT [1]: 1314 x10E3/uL | ALANINE AMINOTRANSFERASE [1]: 43 u/L | ALBUMIN [1]: 4.27 G/DL | ALKALINE PHOSPHATASE [1]: 316.67 u/L | ASPARTATE AMINOTRANSFERASE [1]: 75.67 u/L | BLOOD UREA NITROGEN [1]: 18.33 mg/dL | CARBON DIOXIDE [1]: 24.67 mmol/L | CHLORIDE [1]: 106 MEQ/L | CHOLESTEROL [1]: 86 mg/dL | CREATINE PHOSPHOKINASE [1]: 233.67 u/L | CREATININE [1]: 0.28 mg/dL | GLUCOSE [1]: 150.33 mg/dL | LACTATE DEHYDROGENASE [1]: 355.67 u/L | LIPASE [1]: 9 u/L | PHOSPHORUS [1]: 12.8 mg/dL | POTASSIUM [1]: 6.3 MEQ/L | SODIUM [1]: 147.3 MEQ/L | TOTAL BILIRUBIN [1]: 0.23 mg/dL | TOTAL PROTEIN [1]: 6.03 G/DL | URIC ACID [1]: 1.3 mg/dL | ABSOLUTE BASOPHIL [2]: 0 CELLS/uL | ABSOLUTE EOSINOPHIL [2]: 0 CELLS/uL | ABSOLUTE LYMPHOCYTE [2]: 15247.67 CELLS/uL | ABSOLUTE MONOCYTE [2]: 224.67 CELLS/uL | ABSOLUTE SEGMENTED NEUTROPHIL [2]: 2294.33 CELLS/uL | BASOPHIL [2]: 0% | EOSINOPHIL [2]: 0% | ERYTHROCYTE COUNT [2]: 5.9 x10E6/uL | HEMATOCRIT [2]: 36.63% | HEMOGLOBIN [2]: 13.87 G/DL | LEUKOCYTE COUNT [2]: 17.77 x10E3/uL | LYMPHOCYTE [2]: 85.33% | MEAN CORPUSCULAR HEMOGLOBIN [2]: 23.5 pg | MEAN CORPUSCULAR HEMOGLOBIN CONCENTRATION [2]: 37.83 G/DL | MEAN CORPUSCULAR VOLUME [2]: 62.1 fL | MONOCYTE [2]: 1.33% | NEUTROPHIL [2]: 13.33% | NUCLEATED RED BLOOD CELLS [2]: 0 /100WBC | PLATELET COUNT [2]: 1316.67 x10E3/uL | ALANINE AMINOTRANSFERASE [2]: 42.33 u/L | ALBUMIN [2]: 4.33 G/DL | ALKALINE PHOSPHATASE [2]: 270 u/L | ASPARTATE AMINOTRANSFERASE [2]: 91 u/L | BLOOD UREA NITROGEN [2]: 18.67 mg/dL | CARBON DIOXIDE [2]: 25 mmol/L | CHLORIDE [2]: 104 MEQ/L | CHOLESTEROL [2]: 61 mg/dL | CREATINE PHOSPHOKINASE [2]: 601.67 u/L | CREATININE [2]: 0.19 mg/dL | GLUCOSE [2]: 177.67 mg/dL | LACTATE DEHYDROGENASE [2]: 433 u/L | LIPASE [2]: 8.67 u/L | PHOSPHORUS [2]: 14 mg/dL | POTASSIUM [2]: 6.21 MEQ/L | SODIUM [2]: 147.03 MEQ/L | TOTAL BILIRUBIN [2]: 0.13 mg/dL | TOTAL PROTEIN [2]: 6.3 G/DL | URIC ACID [2]: 1.83 mg/dL | ABSOLUTE BASOPHIL [3]: 0 CELLS/uL | ABSOLUTE EOSINOPHIL [3]: 0 CELLS/uL | ABSOLUTE LYMPHOCYTE [3]: 16010 CELLS/uL | ABSOLUTE MONOCYTE [3]: 231.33 CELLS/uL | ABSOLUTE SEGMENTED NEUTROPHIL [3]: 1025.33 CELLS/uL | BASOPHIL [3]: 0% | EOSINOPHIL [3]: 0% | ERYTHROCYTE COUNT [3]: 6.28 x10E6/uL | HEMATOCRIT [3]: 40.03% | HEMOGLOBIN [3]: 14.6 G/DL | LEUKOCYTE COUNT [3]: 17.27 x10E3/uL | LYMPHOCYTE [3]: 92.67% | MEAN CORPUSCULAR HEMOGLOBIN [3]: 23.33 pg | MEAN CORPUSCULAR HEMOGLOBIN CONCENTRATION [3]: 36.47 G/DL | MEAN CORPUSCULAR VOLUME [3]: 63.9 fL | MONOCYTE [3]: 1.33% | NEUTROPHIL [3]: 6% | NUCLEATED RED BLOOD CELLS [3]: 0 /100WBC | PLATELET COUNT [3]: 1313.67 x10E3/uL | ALANINE AMINOTRANSFERASE [3]: 51.67 u/L | ALBUMIN [3]: 4.5 G/DL | ALKALINE PHOSPHATASE [3]: 417.33 u/L | ASPARTATE AMINOTRANSFERASE [3]: 82.67 u/L | BLOOD UREA NITROGEN [3]: 13.67 mg/dL | CARBON DIOXIDE [3]: 23 mmol/L | CHLORIDE [3]: 105.33 MEQ/L | CHOLESTEROL [3]: 84 mg/dL | CREATINE PHOSPHOKINASE [3]: 198.33 u/L | CREATININE [3]: 0.22 mg/dL | GLUCOSE [3]: 155.33 mg/dL | LACTATE DEHYDROGENASE [3]: 234 u/L | LIPASE [3]: 9 u/L | PHOSPHORUS [3]: 14.77 mg/dL | POTASSIUM [3]: 7.14 MEQ/L | SODIUM [3]: 148.8 MEQ/L | TOTAL BILIRUBIN [3]: 0.2 mg/dL | TOTAL PROTEIN [3]: 6.33 G/DL | URIC ACID [3]: 2.1 mg/dL | ABSOLUTE BASOPHIL [4]: 0 CELLS/uL | ABSOLUTE EOSINOPHIL [4]: 277 CELLS/uL | ABSOLUTE LYMPHOCYTE [4]: 11716.67 CELLS/uL | ABSOLUTE MONOCYTE [4]: 225 CELLS/uL | ABSOLUTE SEGMENTED NEUTROPHIL [4]: 1048 CELLS/uL | BASOPHIL [4]: 0% | EOSINOPHIL [4]: 2% | ERYTHROCYTE COUNT [4]: 5.69 x10E6/uL | HEMATOCRIT [4]: 36.1% | HEMOGLOBIN [4]: 13.83 G/DL | LEUKOCYTE COUNT [4]: 13.27 x10E3/uL | LYMPHOCYTE [4]: 88.67% | MEAN CORPUSCULAR HEMOGLOBIN [4]: 24.27 pg | MEAN CORPUSCULAR HEMOGLOBIN CONCENTRATION [4]: 38.33 G/DL | MEAN CORPUSCULAR VOLUME [4]: 63.43 fL | MONOCYTE [4]: 1.67% | NEUTROPHIL [4]: 7.67% | NUCLEATED RED BLOOD CELLS [4]: 0 /100WBC | PLATELET COUNT [4]: 1319.67 x10E3/uL | ALANINE AMINOTRANSFERASE [4]: 44 u/L | ALBUMIN [4]: 4.43 G/DL | ALKALINE PHOSPHATASE [4]: 308.33 u/L | ASPARTATE AMINOTRANSFERASE [4]: 87.33 u/L | BLOOD UREA NITROGEN [4]: 20.67 mg/dL | CARBON DIOXIDE [4]: 24.33 mmol/L | CHLORIDE [4]: 106.67 MEQ/L | CHOLESTEROL [4]: 58.67 mg/dL | CREATINE PHOSPHOKINASE [4]: 307 u/L | CREATININE [4]: 0.18 mg/dL | GLUCOSE [4]: 143 mg/dL | LACTATE DEHYDROGENASE [4]: 514.33 u/L | LIPASE [4]: 9 u/L | PHOSPHORUS [4]: 12.6 mg/dL | POTASSIUM [4]: 6.63 MEQ/L | SODIUM [4]: 147.1 MEQ/L | TOTAL BILIRUBIN [4]: 0.17 mg/dL | TOTAL PROTEIN [4]: 6.27 G/DL | URIC ACID [4]: 1.5 mg/dL
